Read-outs that look alike come from different tables or passages of the source. Marks after values point to notes of the source that are not given here.
Experiments:
[1] = test system: chloroquine-sensitive D6 strain of P. falciparum; assay: In vitro antiplasmodial assay, (G-3H) hypoxanthine incorporation, D6 strain; format: cell-based; details: Plasmodium falciparum
Protocol: (§1) Continuous in vitro cultures of asexual erythrocytic stages of Indochinese chloroquine-resistant W2 and Sierra Leonean chloroquine-sensitive D6 strains of P. falciparum were maintained following the modified procedure described by Trager and Jensen. Drug assay was carried out following a modification of the semiautomated microdilution technique, which measures the ability of the extracts to inhibit the incorporation of (G-^3H) hypoxanthine into the malaria parasite. […] Data was transferred into the software Microsoft Excel and was expressed as the percentage of the untreated controls. The drug concentration required for 50% inhibition of (G-^3H) hypoxanthine incorporation into parasite nucleic acid was calculated with nonlinear regression analysis of the dose-response curve.

[2] = test system: MDA-MB-231 human breast cancer cells; assay: Alamar Blue cytotoxicity assay, MDA-MB-231 cells; format: cell-based; details: pure compounds, 72 h
Protocol: Cytotoxicity tests on MDA-MB-231 cells were carried out following a previously described procedure. MDA-MB-231 human breast cancer cells were cultured in Dulbecco’s modified eagle medium (DMEM) supplemented with 10% (v/v) fetal bovine serum, 2 mM L-glutamine, 100 units/mL penicillin and 100 μg/mL streptomycin at 37 °C in humidified 5% CO2. For cytotoxicity assays, cells were seeded in 96-well plates at optimal cell density (10,000 cells per well) to ensure exponential growth for the duration of the assay. After a 24 h preincubation growth, the medium was replaced with experimental medium containing the appropriate drug concentrations or vehicle controls (0.1% or 1.0% v/v DMSO). After 72 h of incubation, cell viability was measured using Alamar Blue reagent (Invitrogen Ab, Lidingö, Sweden) according to the manufacturer’s instructions. Absorbance was measured at 570 nm with 600 nm as a reference wavelength. Results were expressed as the mean ± standard error for six replicates as a percentage of vehicle control (taken as 100%). Experiments were performed independently at least six times. Statistical analyses were performed using a two-tailed Student’s t-test. p < 0.05 was considered to be statistically significant.

[3] = test system: African monkey kidney (vero) cells; assay: MTT cytotoxicity assay, vero cells; format: cell-based; details: Primates, 48 h, read-out: IC50 Vero
From the text: (§2) This assay is based on the ability of a mitochondrial dehydrogenase enzyme from viable cells to cleave the tetrazolium rings of the pale yellow MTT and thereby form dark blue formazan crystals, which are largely impermeable to cell membranes, resulting in their accumulation within healthy cells. The amount of generated formazan is directly proportional to the number of cells. […] Cells were maintained in Eagle’s Minimum Essential Medium (MEM) containing 10% fetal bovine serum (FBS). A cell density of 20.000 cells per well in 100 μL were seeded on 96-well plates and incubated for 12 h at 37 °C and 5% CO2 to attach to the surface. […] The plates were incubated for 48 h at 37 °C and 5% CO2, followed by an addition of 10 µL MTT viability indicator reagent. The plates were incubated for additional 4 h at the same conditions. Next, all media was removed from the plates and 100 µL DMSO was added to dissolve the formazan crystals. The plates were read on a Multiskan EX Labsystems scanning multi-well spectrophotometer at 562 nm, and 620 nm as reference. The results were recorded as optical density (OD) per well at each drug concentration. The data was transferred into the software Microsoft Excel and expressed as percentage of the untreated controls.

[4] = test system: human larynx carcinoma (HEp2) cells; assay: MTT cytotoxicity assay, HEp2 cells; format: cell-based; details: HEp-2, pure compounds, 48 h
Protocol: (§3) A rapid colorimetric assay was carried out using 3-(4,5-dimethylthiazol-2-yl)-2,5-diphenyltetrazolium bromide (MTT). This assay is based on the ability of a mitochondrial dehydrogenase enzyme from viable cells to cleave the tetrazolium rings of the pale yellow MTT and thereby form dark blue formazan crystals, which are largely impermeable to cell membranes, resulting in their accumulation within healthy cells. The amount of generated formazan is directly proportional to the number of cells. In this assay, the mammalian cell lines African monkey kidney (vero), mouse breast cancer (4T1) and human larynx carcinoma (HEp2) were used. Cells were maintained in Eagle’s Minimum Essential Medium (MEM) containing 10% fetal bovine serum (FBS). A cell density of 20.000 cells per well in 100 μL were seeded on 96-well plates and incubated for 12 h at 37 °C and 5% CO2 to attach to the surface. Samples of the tested extracts and isolated compounds were added to the cultured cells in rows H-B over a concentration range of 0.14 to 100 μg/mL, whereas wells 1–8 of row A served as untreated controls and wells 9–12 as blank (1% DMSO, v/v). The plates were incubated for 48 h at 37 °C and 5% CO2, followed by an addition of 10 µL MTT viability indicator reagent. The plates were incubated for additional 4 h at the same conditions. Next, all media was removed from the plates and 100 µL DMSO was added to dissolve the formazan crystals. The plates were read on a Multiskan EX Labsystems scanning multi-well spectrophotometer at 562 nm, and 620 nm as reference. The results were recorded as optical density (OD) per well at each drug concentration. The data was transferred into the software Microsoft Excel and expressed as percentage of the untreated controls. Percentage cytotoxicity (PC) as compared to the untreated controls was calculated as PC = [A − B/A] × 100, where A is the mean OD of the untreated cells and B is the mean OD at each drug concentration. The drug concentration required for 50% inhibition of cell growth was estimated using nonlinear regression analysis of the dose- response curve.

[5] = test system: chloroquine-resistant W2 strain of P. falciparum; assay: In vitro antiplasmodial assay, (G-3H) hypoxanthine incorporation, W2 strain; format: cell-based; details: Plasmodium falciparum, pure compounds
Protocol: as §1

[6] = test system: mouse breast cancer (4T1) cells; assay: MTT cytotoxicity assay, 4T1 cells; format: cell-based; details: 4T1, 48 h, pure compounds
From the text: as §2

vero cells = assay: Interaction of oleanonic acid (2) with other triterpenoids, fixed ratios, vero cell cytotoxicity; format: cell-based, African monkey; details: for IC50: Primates, ratio 0:1, in the absence of 2 (for 2: alone), read-out: IC50 (μg/mL), substance alone; for ∑FIC 1:1: ratio of oleanonic acid (2) versus constituent 1:1; for ∑FIC 1:3: ratio of oleanonic acid (2) versus constituent 1:3; for ∑FIC 3:1: ratio of oleanonic acid (2) versus constituent 3:1
From the text: as §3, with “This” for “A rapid colorimetric assay was carried out using 3-(4,5-dimethylthiazol-2-yl)-2,5-diphenyltetrazolium bromide (MTT). This”, “In this assay, the mammalian cell lines African monkey kidney (vero), mouse breast cancer (4T1) and human larynx carcinoma (HEp2) were used.” left out, “Samples of the tested extracts and isolated compounds were added to the cultured cells in rows H-B over a concentration range of 0.14 to 100 μg/mL, whereas wells 1–8 of row A served as untreated controls and wells 9–12 as blank (1% DMSO, v/v).” left out, “curve. The interaction of oleanonic acid (2) with other triterpenoids was studied using the fixed concentration ratios oleanonic acid: ‘other triterpenoid’ 0:1, 1:3, 1:1, 3:1, 1:0. The vero cell cytotoxicity assay was used, as described above, to evaluate the toxicity of the mixtures. To determine whether there was synergy, additive effect or antagonism, the sum of fractional inhibition concentration (∑FIC) was calculated using the formula Ax/Ay + Bx/By = K, where Ax and Bx are the IC50s when the substances are used in combination, and Ay and By are the IC50s, when the substances are used alone. The data was scored with the scale ∑FIC < 1: synergism, 2 > ∑FIC ≥ 1: additive, 4 > ∑FIC ≥ 2: slight antagonism, ∑FIC ≥ 4: marked antagonism.” for “curve.”

[7] = test system: 3D7 strain of P. falciparum; set-up: method as in PMID 14598212; details: cited from earlier work
[8] = pure compounds, P. falciparum D6, mean of at least three independent experiments, read-out: IC50 D6

IC50 [1, 8]	IC50 [5]	IC50 ([1]; D6, read-out: IC50(D6))	Structure (SMILES)	IC50 [2]	IC50 ([3]; vero cells, MTT)	IC50 [4]	IC50 [6]	Interaction with the cytotoxic effect of oleanonic acid (2), in words (vero cells)	IC50 (vero cells)	∑FIC 1:1 (vero cells)	∑FIC 1:3 (vero cells)	∑FIC 3:1 (vero cells)	IC50 ([3]; Vero)	in vitro antiplasmodial activity against 3D7, in words [7]
42.9 ± 0.3 µM	105.8 ± 1 µM	–	O=c1c(O[C@@H]2O[C@H](CO)[C@@H](O)[C@H](O)[C@H]2O)c(-c2ccc(O)c(O)c2)oc2cc(O)cc(O)c12 [Compound 10, quercetin-3-O-β-D-glucopyranoside]	> 216 µM	> 216 µM	> 216 µM	> 216 µM	–	–	–	–	–	–	–
97.1 ± 1 µM	105.8 ± 0.5 µM	–	O=c1c(O[C@@H]2O[C@H](CO)[C@@H](O)[C@H](O)[C@H]2O)c(-c2ccc(O)cc2)oc2cc(O)cc(O)c12 [Compound 9, kaempferol-3-O-β-D-glucopyranoside]	> 223 µM	> 223 µM	> 223 µM	> 223 µM	–	–	–	–	–	–	–
84.7 ± 0.8 µM	150 ± 3 µM	–	COC(=O)C[C@H]1C(C)(C)[C@H](O)[C@@H]2CC3=C4CC(=O)O[C@@H](c5ccoc5)[C@]4(C)CC[C@@H]3[C@@]1(C)C2=O [Compound 8, proceranolide]	–	> 213 µM	> 213 µM	> 213 µM	–	–	–	–	–	–	–
56.1 ± 0.4 µM	64.3 ± 1 µM	–	CC(=CCCC=C(C)CCC=C(C)CCC(O)C(C)(C)O)CCC=C(C)CCC(O)C(C)(C)O (centres unmarked) [Compound 7, 2,3,22,23-tetrahydroxy-2,6,10,15,19,23-hexamethyl-6,10,14,18-tetracosatetraene]	> 209 µM	24.7 ± 1.8 µM	35.5 ± 3.1 µM	22.5 ± 3.2 µM	weak antagonistic effects	11 µg/mL	1.9 ^c	2 ^c	2.2 ^c	–	–

The next lines start with the molecule.

Structure (SMILES)	IC50 [1, 8]	IC50 [5]	IC50 ([1]; D6, read-out: IC50(D6))	IC50 [2]	IC50 ([3]; vero cells, MTT)	IC50 [4]	IC50 [6]	Interaction with the cytotoxic effect of oleanonic acid (2), in words (vero cells)	IC50 (vero cells)	∑FIC 1:1 (vero cells)	∑FIC 1:3 (vero cells)	∑FIC 3:1 (vero cells)	IC50 ([3]; Vero)	in vitro antiplasmodial activity against 3D7, in words [7]
CC1(C)CC[C@]2(C(=O)O)CC[C@]3(C)C(=CC[C@@H]4[C@@]5(C)CCC(=O)C(C)(C)[C@@H]5CC[C@]43C)[C@@H]2C1 [Compound 2, oleanonic acid]	38.8 ± 0.5 µM	76.7 ± 4 µM	–	> 212 µM	35.8 ± 1.3 µM	1.4 ± 0.1 µM	–	–	14.8 µg/mL	–	–	–	–	–
CC(C)C12CCC3(CCC4(C)C(CCC5C6(C)CCC(=O)C(C)(C)C6CCC54C)C3O1)CO2 (centres unmarked) [Compound 5, ekeberin A]	182 ± 6 µM	> 219 µM	–	–	> 219 µM	> 219 µM	163 ± 4.3 µM	antagonized by high concentrations of ekeberin A (5), but at lower relative concentrations 5 enhanced the toxicity of 2	> 100 µg/mL	<1.4 ^c	<4 ^c	<1.3 ^c	–	–
CC1(C)CC[C@]2(C(=O)O)CC[C@]3(C)C(=CC[C@@H]4[C@@]5(C)CC[C@@H](O)C(C)(C)[C@@H]5CC[C@]43C)C2C1 (stereo partly drawn) [Compound 3, 3-epi-oleanolic acid]	205 ± 3 µM	179 ± 6 µM	–	36.54 ± 0.02 µM	58 ± 5.2 µM	29.8 ± 0.3 µM	30.3 ± 2.6 µM	markedly antagonized	22.5 µg/mL	5.2 ^c	9.8 ^c	5.8 ^c	–	–
CCN(CC)CCCC(C)Nc1ccnc2cc(Cl)ccc12 (centres unmarked) [Chloroquine, reference compound]	–	–	0.0077 µM	–	–	–	–	–	–	–	–	–	43.9 µM	–
CC1(C)CC[C@]2(C(=O)O)CC[C@]3(C)C(=CC[C@@H]4[C@@]5(C)CC[C@H](O)C(C)(C)[C@@H]5CC[C@]43C)[C@@H]2C1 [Compound 4, oleanolic acid]	49.6 ± 2.3 µM	82.7 ± 2 µM	–	39.82 ± 0.03 µM	112 ± 5.1 µM	134.9 ± 0.7 µM	118 ± 2.6 µM	slight antagonistic effect	40.3 µg/mL	4.7 ^c	3.3 ^c	3.6 ^c	–	moderate
CC(=CCCC=C(C)CCC=C(C)CCC(O)C(C)(O)CO)CCC=C(C)CCC(O)C(C)(C)O (centres unmarked) [Compound 6, 2-hydroxymethyl-2,3,22,23-tetrahydroxy-6,10,15,19,23-pentamethyl-6,10,14,18-tetracosatetraene]	27.1 ± 0.4 µM	66.9 ± 0.6 µM	–	36.69 ± 0.04 µM	35.7 ± 2.1 µM	38.4 ± 0.8 µM	30.2 ± 1.3 µM	weak antagonistic effects	13.6 µg/mL	2.2 ^c	2.2 ^c	2.3 ^c	–	–
